How the values were obtained:
VCaP cells = experiment: Cellular growth inhibition assay for VCaP cells (CellTiter-Glo 2.0, 72 hours); type: cell-based, human; conditions: for GI50: CellTiter-Glo 2.0; for Ratio of GI50's: GI50 of the top compound in the pair divided by GI50 of the lower compound
Procedure: Exemplary compounds were tested for ability to inhibit the proliferation of VCaP cells. VCap cells are a commercially available human prostate cancer cell line.
VCaP cells were purchased from American Type Cell Culture (ATCC Cat #CRL2876) and then seeded on poly-D-lysine coated, black clear-bottom 384-well plates at 5000/well in 25 μL Dulbecco's Modified Eagle Medium (DMEM) supplemented with 10% w/w Fetal bovine serum (FBS) and 1% w/w Pen-Strep. Pen-Strep is a commercially available mixture of penicillin G and streptomycin, which is used in mammalian cell culture media to prevent bacterial contamination. Dulbecco's Modified Eagle Medium (DMEM) supplemented with 10% w/w fetal bovine serum (FBS) and 1% w/w Pen-Strep is herein referred to as Treatment Medium. Following seeding of cells in the plates, the plates were spun at 300×g for 30 seconds, then equilibrated to room temperature for 30 minutes, and then deposited in a humidified tissue culture incubator maintained at 37° C. with 5% CO2.
(§1) At 24 hours after seeding of the cells, dilutions of test compound were prepared in DMSO and dissolved in Treatment Medium, to achieve a final DMSO concentration of 0.5% w/w, thereby providing the Test Compound Solution. A 25 μL aliquot of the Test Compound Solution was added to cells in the well plates. An equal volume of a solution containing DMSO and Treatment Medium was used as a negative control. Following treatment of cells with Test Compound Solution or said equal volume of a solution containing DMSO and Treatment Medium, the plates were spun at 300×g for 30 seconds, and then left in an incubator for 72 hours.
(§2) At the end of the treatment duration, cell viability was quantified with CellTiter-Glo 2.0 reagent (Promega Cat #G9243). For this purpose, plates were equilibrated to room temperature for 30 minutes, and then 25 μL of CellTiter-Glo 2.0 reagent was added to cells in the plate wells. Plates were then agitated on a shaker for two minutes at 500 rpm and subsequently incubated at room temperature for 10 minutes. Following incubation, the plates were spun at 3000×g for 30 seconds, then sealed with an optical adhesive cover, and luminescence readings were measured with an En Vision Plate Reader.
(§3) Data was normalized using zero luminescence for baseline. A four-parameter non-linear regression curve fit was applied to dose-response data in GraphPad Prism data analysis software to determine the half-maximal growth inhibitory concentration (GI50) for each test compound.

[1] = system: T-Rex 293 cell line SC3 cells lacking increased expression of androgen receptor protein; experiment: Cellular growth inhibition, T-Rex 293 SC3 cells without doxycycline (CellTiter-Glo 2.0, 72 hours); type: cell-based; conditions: T-Rex 293 SC3 cells not exposed to doxycycline (no increased androgen receptor expression)
Procedure: (§4) Ability of the test compounds to inhibit proliferation of the foregoing cell types was evaluated according to the procedures set forth below.
(§5) The doxycycline-inducible androgen receptor protein expressing cell line was established using the following protocol: T-Rex 293 cells were purchased from Invitrogen (Cat #R71007) and transfected using Lipofectamine 2000 with the wild-type androgen receptor protein sequence cloned into the pcDNA4/TO vector. Transfected cells were selected using 400 μg/mL Zeocin (Invitrogen Cat #R25001). Following selection, single clones were raised and maintained in Dulbecco's Modified Eagle Medium (DMEM) supplemented with 10% w/w Tetracycline-free fetal bovine serum (FBS) and 250 μg/mL Zeocin. Clones were analyzed for expression of androgen receptor protein in the presence and absence of 10 ng/ml doxycycline (Sigma Cat #D9891), and a single doxycycline-inducible clone (hereinafter “SC3”) was selected for use in downstream assays.
(§6) The SC3 cells were seeded on poly-D-lysine coated, black clear-bottom 384-well plates at 2500/well, in 25 μL Phenol Red Free Dulbecco's Modified Eagle Medium (DMEM) supplemented with 10% w/w charcoal-dextran treated fetal bovine serum (FBS) and 1% w/w pen-strep, with or without 10 ng/ml doxycycline. Pen-Strep is a commercially available mixture of penicillin G and streptomycin, which is used in mammalian cell culture media to prevent bacterial contamination. Phenol Red Free Dulbecco's Modified Eagle Medium (DMEM) supplemented with 10% w/w charcoal-dextran treated fetal bovine serum (FBS) and 1% w/w pen-strep, with or without 10 ng/mL doxycycline is herein referred to as Treatment Medium. Following seeding of cells in the plates, the plates were spun at 300×g for 30 seconds, then equilibrated to room temperature for 30 minutes, and then deposited in a humidified tissue culture incubator maintained at 37° C. with 5% CO2.
as §1, §2, §3

[2] = system: T-Rex 293 cell line SC3 cells having increased expression of androgen receptor protein due to exposure to doxycycline; experiment: Cellular growth inhibition, T-Rex 293 SC3 cells with doxycycline-induced androgen receptor (CellTiter-Glo 2.0, 72 hours); type: cell-based; conditions: for GI50: T-Rex 293 SC3 cells with 10 ng/ml doxycycline (increased androgen receptor expression), 72 hours, CellTiter-Glo 2.0; for Ratio of GI50's: GI50 of the top compound in the pair divided by GI50 of the lower compound, T-Rex 293 SC3 cells with doxycycline-induced androgen receptor
Procedure: as §4, §5, §6, §1, §2, §3

| GI50 (VCaP cells; Homo sapiens, VCaP, 72 h) [nM] | Ratio of GI50's (VCaP cells) | SMILES | GI50 ([1]; 72 h) [nM] | GI50 [2] [nM] | Ratio of GI50's [2] | other results |
| --- | --- | --- | --- | --- | --- | --- |
| < 500 | – | COc1cc(O[C@H]2CC[C@H](NC(=O)c3ccc(N4C[C@]5(C)CN(c6ccc(C7=N[C@@H](Cc8ncco8)c8nnc(C)n8-c8sc(C)c(C)c87)cc6)C[C@]5(C)C4)nn3)CC2)ccc1C#N [Compound I-118] | < 500 | < 500 | – | – |
| < 500 | – | COc1cc(O[C@H]2CC[C@H](NC(=O)c3ccc(N4C[C@@H]5CN(c6ccc(C7=N[C@@H](C)c8nnc(C)n8-c8sc(C)c(C)c87)cc6F)C[C@@H]5C4)nn3)CC2)ccc1C#N [Compound I-76] | < 500 | < 500 | – | – |
| < 500 | – | COc1cc(O[C@H]2CC[C@H](NC(=O)c3ccc(N4CCC5(CCC(Oc6ccc(C7=N[C@@H](C)c8nnc(C)n8-c8sc(C)c(C)c87)cc6)C5)C4)nn3)CC2)ccc1C#N (single isomer, unassigned) [Compound I-49] | < 500 | < 500 | – | – |
| < 500 | – | COc1cc(O[C@H]2CC[C@H](NC(=O)c3ccc(N4CCC5(CCN(c6ccc(C7=N[C@@H](C)c8nnc(C)n8-c8sc(C)c(C)c87)c(C)c6)CC5)C4)nn3)CC2)ccc1C#N [Compound I-72] | < 500 | < 500 | – | – |
| > 3000 | – | COc1cc(O[C@H]2C(C)(C)[C@H](NC(=O)c3cnc(N4CCC5(CC4)CC(Oc4ccc(C6=N[C@H](Cc7ncco7)c7nnc(C)n7-c7sc(C)c(C)c76)cc4)C5)nc3)C2(C)C)ccc1C#N [II-14] | > 3000 | < 500 | – | – |
| < 500 | – | COc1cc(O[C@H]2CC[C@H](NC(=O)c3ccc(N4CCC5(CCN(c6ccc(C7=N[C@@H](C)c8nnc(C)n8-c8sc(C)c(C)c87)cc6)CC56CCC6)C4)nn3)CC2)ccc1C#N (stereo partly shown) [Compound I-130] | – | < 500 | – | – |
| < 500 | – | COc1cc(O[C@H]2CC[C@H](NC(=O)c3ccc(N4CCC5(CCC(c6ccc(C7=N[C@@H](C)c8nnc(C)n8-c8sc(C)c(C)c87)cc6C(C)C)CC5)C4)nn3)CC2)ccc1C#N (stereo partly shown) [Compound I-121] | > 3000 | < 500 | – | – |
| < 500 | – | COc1cc(O[C@H]2C(C)(C)[C@H](NC(=O)c3cnc(N4CCC5(CC4)CC(Cc4ccc(C6=N[C@@H](Cc7ncco7)c7nnc(C)n7-c7sc(C)c(C)c76)c(F)c4)C5)nc3)C2(C)C)ccc1C#N [II-13] | < 500 | < 500 | – | – |
| < 500 | – | COc1cc(O[C@H]2CC[C@H](NC(=O)c3ccc(N4CCC5(CCC(c6ccc(C7=N[C@@H](C)c8nnc(C)n8-c8sc(C)c(C)c87)cc6OC)CC5)C4)nn3)CC2)ccc1C#N (single isomer, unassigned) [Compound I-66] | < 500 | < 500 | – | – |
| < 500 | – | COc1cc(O[C@H]2CC[C@H](NC(=O)c3ccc(N4CCCC5(CCN(c6ccc(C7=N[C@@H](C)c8nnc(C)n8-c8sc(C)c(C)c87)cc6)CC5)C4)nn3)CC2)ccc1C#N [Compound I-18] | – | – | – | – |
| < 500 | – | COc1cc(O[C@H]2CC[C@H](NC(=O)c3ccc(N4CCC5(CCCN(c6ccc(C7=N[C@@H](C)c8nnc(C)n8-c8sc(C)c(C)c87)cc6)C5)C4)nn3)CC2)ccc1C#N (stereo partly drawn) [Compound I-82, N-((1r,4r)-4-(4-cyano-3-methoxyphenoxy)cyclohexyl)-6-(7-(4-((S)-2,3,6,9-tetramethyl-6H-thieno[3,2-f][1,2,4]triazolo[4,3-a][1,4]diazepin-4-yl)phenyl)-2,7-diazaspiro[4.5]decan-2-yl) pyridazine-3-carboxamide] | – | < 500 | – | – |

The next lines start with the compound.

| SMILES | GI50 (VCaP cells; Homo sapiens, VCaP, 72 h) [nM] | Ratio of GI50's (VCaP cells) | GI50 ([1]; 72 h) [nM] | GI50 [2] [nM] | Ratio of GI50's [2] | other results |
| --- | --- | --- | --- | --- | --- | --- |
| COc1cc(O[C@H]2CC[C@H](NC(=O)c3ccc(N4CCC5(CCN(c6ccc(C7=N[C@@H](C)c8nnc(C)n8-c8sc(C)c(C)c87)cc6)CC5(F)F)C4)nn3)CC2)ccc1C#N (stereo partly shown) [Compound I-116] | – | – | – | < 500 | – | GI50 (VCaP cells; 72 hours): < 500 nM; GI50 [1]: < 500 nM |
| Cc1sc2c(c1C)C(c1ccc(CC3CC4(CCN(c5ccc(C(=O)N[C@H]6CC[C@H](Oc7ccc(C#N)c(Cl)c7)CC6)nn5)CC4)C3)cc1)=N[C@@H](Cc1ncco1)c1nnc(C)n1-2 [F, reference compound] | – | 1.9 | – | – | 3.8 | – |
| Cc1sc2c(c1C)C(c1ccc(N3CCC4(CC3)CCN(c3ccc(C(=O)N[C@H]5CC[C@H](Oc6ccc(C#N)c(Cl)c6)CC5)nn3)C4)cc1)=N[C@@H](C)c1nnc(C)n1-2 [H, reference compound] | – | 1.8 | – | – | 8.4 | – |
| COc1cc(O[C@H]2CC[C@H](NC(=O)c3ccc(N4CCC5(CCCN(c6ccc(C7=N[C@@H](C)c8nnc(C)n8-c8sc(C)c(C)c87)cc6)C5)C4)nn3)CC2)ccc1C#N (stereo partly shown) [Compound I-98] | – | – | < 500 | – | – | – |
| Cc1sc2c(c1C)C(c1ccc(OC3CC4(CCN(c5ccc(C(=O)N[C@H]6CC[C@H](Oc7ccc(C#N)c(Cl)c7)CC6)nn5)CC4)C3)cc1)=N[C@@H](Cc1ncco1)c1nnc(C)n1-2 [E, reference compound] | – | 4.4 | – | – | 4.7 | – |
| COc1cc(O[C@H]2CC[C@H](NC(=O)c3ccc(N4CCC5(CCN(c6ccc(C7=N[C@@H](C)c8nnc(C)n8-c8sc(C)c(C)c87)cc6)CC56CCC6)C4)nn3)CC2)ccc1C#N (stereo partly shown) [Compound I-132] | – | – | < 500 | – | – | – |
| Cc1sc2c(c1C)C(c1ccc(C3CCC4(CC3)CCN(c3ncc(C(=O)N[C@H]5C(C)(C)[C@H](Oc6ccc(C#N)c(Cl)c6)C5(C)C)cn3)C4)cc1)=N[C@@H](Cc1ncco1)c1nnc(C)n1-2 [D, reference compound] | – | 6.5 | – | – | 3.8 | – |
| COc1cc(O[C@H]2CC[C@H](NC(=O)c3ccc(N4CCCC5(CCN(c6ccc(C7=N[C@@H](C)c8nnc(C)n8-c8sc(C)c(C)c87)cc6)CC5)C4)nn3)CC2)ccc1C#N [Compound I-26] | – | – | < 500 | < 500 | – | – |
| Cc1sc2c(c1C)C(c1ccc(C3CCC4(CC3)CCN(c3ccc(C(=O)N[C@H]5CC[C@H](Oc6ccc(C#N)c(Cl)c6)CC5)nn3)C4)cc1)=N[C@@H](Cc1ncco1)c1nnc(C)n1-2 (stereo partly shown) [J, reference compound] | – | 3.0 | – | – | 3.2 | – |
| Cc1sc2c(c1C)C(c1ccc(C#CC3CC4(C3)CN(c3ccc(C(=O)N[C@H]5CC[C@H](Oc6ccc(C#N)c(Cl)c6)CC5)nn3)C4)cc1)=N[C@@H](Cc1ncco1)c1nnc(C)n1-2 [G, reference compound] | – | 1.5 | – | – | 1.7 | – |
| Cc1sc2c(c1C)C(c1ccc(CC3CC4(CCN(c5ncc(C(=O)N[C@H]6C(C)(C)[C@H](Oc7ccc(C#N)c(Cl)c7)C6(C)C)cn5)CC4)C3)cc1)=N[C@@H](Cc1ncco1)c1nnc(C)n1-2 [C, reference compound] | – | 2.6 | – | – | 22.0 | – |
| Cc1sc2c(c1C)C(c1ccc(C#CC3CC4(C3)CN(c3ccc(C(=O)N[C@H]5CC[C@H](Oc6ccc(C#N)c(Cl)c6)CC5)nn3)C4)cc1F)=NC(Cc1ncco1)c1nnc(C)n1-2 (stereo partly shown) [K, reference compound] | – | 1.5 | – | – | 2.0 | – |

From patent publication US12668599B2, “Heterobifunctional compounds and methods of treating disease” (Halda Therapeutics OpCo, Inc., priority 2023, dated 2026)
